The results in this text go back to patent US20240269145A1, “USE OF INDOLE COMPOUND AS INHIBITORS OF FERROPTOSIS” (MITOIMMUNE THERAPEUTICS INC., priority 2023, published 2024).

Format in all cases: cell-based
One test relates to H9C2 cells. In words: Mitochondrial morphological changes (TEM) after erastin. The note with it: H9C2, 5 μM erastin, 10 μM compound, 5 hours. How it is done: To confirm whether Example Compound 1 may inhibit mitochondrial morphological changes due to ferroptosis, an experiment was performed using a transmission electron microscope (TEM). To collect cardiac cell samples, 1.3×10^6 H9C2 cells were cultured in a 150 mm cell culture dish for 4 days, and the culture medium was replaced with fresh culture medium on the second day. After treating the cells with Example Compound 1 at a final concentration of 10 µM for 30 minutes, an erastin-only treatment group was treated with a culture medium including 5 μM erastin; an erastin-Example Compound 1 treatment group was treated with a culture medium including 5 μM erastin and 10 μM Example Compound 1; and the V.C group was treated with a culture medium including the same amount of DMSO, and each group was treated for 5 hours. Afterwards, the supernatant was discarded, and the cells were washed with a 37° C. PBS solution three times. 10 mL of a 2.5% glutaraldehyde solution diluted in PBS was added and treated at room temperature for 1 hour. After washing with PBS solution three times, the remaining PBS solution was completely removed using an aspirator. 1 mL of PBS solution was added to recover the cells with a plastic scraper, and the cells were transferred to a 1.5 mL tube. Cells were allowed to settle using a centrifuge (3000 rpm) for 5 minutes. […]

Test [1] relates to PC-12 cells. The test can be described thus: Mitochondrial iron ion accumulation (Mito-FerroGreen, images) after RSL3. To be noted: PC-12, RSL3 0.3 μM, 30 minutes; Example Compound 1 1 μM, DFO 10 μM. How it is done:
(§1) Experimental Example 9-1: To confirm the inhibitory effect against mitochondrial iron ion accumulation in lung epithelial cells and adrenal medulla cells, 3×10^5 MLE-12 cells and PC-12 cells were each dispensed into a confocal dish and cultured for 18 to 24 hours. Each well was treated with Example Compound 1 and DFO, which were diluted so that their final concentration became 1 μM and 10 μM, respectively, and culture was performed for 20 minutes. Afterwards, the MLE-12 cells were treated with RSL3 so that the final concentration became 1 μM, and cultured for 1 hour and 30 minutes, and the PC-12 cells were treated with RSL3 so that the final concentration became 0.3 μM, and cultured for 30 minutes. To confirm the inhibitory effect against mitochondrial iron ion accumulation, Mito-FerroGreen [DOJINDO; M489] was used. According to the manufacturer's experimental method, Mito-FerroGreen was diluted in the cell culture medium so that the final concentration became 1 μM, and the cells were treated therewith and allowed to react for 30 minutes to perform fluorescent staining. The cells fluorescently stained with Mito-FerroGreen were observed using a fluorescence microscope [Carl Zeiss; Axio Observer 7] to investigate the change in fluorescence (excitation/absorption 450 to 490 nm/500 to 550 nm) compared to the control group (RSL3 untreated group).

The next test deals with MLE-12 cells. The test is described as above. To be noted: MLE-12, RSL3 1 μM, 1 hour 30 minutes; Example Compound 1 1 μM, DFO 10 μM. As for the experimental part:
as §1

The subject of test [2] is PC-12 cells. In words: Cytosolic lipid ROS after RSL3, Experimental Example 3-4. The note with it: PC-12, RSL3 0.3 μM, 1 hr. How it is done: [The source words this procedure for another cell line and says it was used here with some conditions changed.] (§2) Experimental Example 3-1: To confirm the protective effect against cytosolic lipid reactive oxygen species in lung epithelial cells, 2×10^5 MLE-12 cells were dispensed into each well of a 12-well plate and cultured for 18 to 24 hours. Each well was treated with Example Compound 1 and ferrostatin-1, which were diluted so that their final concentration became 0.01, 0.1, 1, and 10 μM, and culture was performed for 15 minutes. Afterwards, the cells were treated so that the final concentration of RSL3 became 1 μM, and cultured for 2 hours. To confirm the inhibitory effect against cytosolic lipid reactive oxygen species, BODIPY™ 581/591 C11 (lipid peroxidation sensor) [Invitrogen™; D3861] was used. According to the manufacturer's experimental method, BODIPY™ 581/591 C11 was diluted in the cell culture medium so that the final concentration became 5 μM, and the cells were treated therewith and allowed to react for 30 minutes to perform fluorescent staining. The MLE-12 cells fluorescently stained with BODIPY™ 581/591 C11 were detached from the 12-well plate using 0.25% Trypsin-EDTA and transferred to a microtube, and the fluorescence (excitation/absorption 500 to 650 nm/510 to 665 nm) was measured using BD FACSLyric™ to calculate the rate of change compared to the control group. […]

For another test, the system named is ARPE-19 cells. The test can be described thus: Cytosolic lipid ROS after RSL3, Experimental Example 3-5. The note with it: ARPE-19, RSL3 0.3 μM, 2 hr. How it is done: [The source words this procedure for another cell line and says it was used here with some conditions changed.] as §2
Another test has as its system HT-22 cells. In words: Cytosolic lipid ROS after erastin, Experimental Example 3-2. The note with it: HT-22, erastin 1 μM, compound at 10 μM. How it is done:
[The source words this procedure for another cell line and says it was used here with some conditions changed.] as §2

With `O=S1(=O)CCN(Cc2cc(NC3CCOCC3)c3[nH]c(-c4ccccc4)cc3c2)CC1` [Example 1, 5-[(1,1-dioxido-4-thiomorpholinyl)methyl]-2-phenyl-N-(tetrahydro-2H-pyran-4-yl)-1H-indole-7-amine], in the test on H9C2 cells, the “mitochondrial morphological changes (size decrease, cristae loss, outer membrane collapse), TEM” value is “alleviated”. Moreover, the “mitochondrial iron ion accumulation (images)” value in the test with PC-12 cells [1] and in the test with MLE-12 cells was “decrease was confirmed” throughout. In addition, the “concentration at which cytosolic lipid reactive oxygen species were significantly decreased” value with PC-12 cells [2] came to 0.1 µM. For the same molecule, the “concentration at which lipid reactive oxygen species are inhibited” value with ARPE-19 cells is 0.01 µM. Moreover, the “cytosolic lipid reactive oxygen species increased by erastin” value in the test on HT-22 cells is on record as “inhibited”; in the test with HT-22 cells (4 hours and 8 hours after treatment), “effectively inhibited”.
